Results reported in PubChem BioAssay (NCI).
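These data come from cells grown in 96-well plates and exposed to compound for 48 hours at five concentrations. GI50 = concentration required for 50% inhibition of growth. TGI denotes the concentration required for complete inhibition of growth.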

Experiments:
Test in all cases: DTP human tumour cell line panel, 48 h
[1] = tested on: 786-0 renal
[2] = tested on: A498 renal
[3] = tested on: A549 NSCLC
[4] = tested on: ACHN renal
[5] = tested on: BT-549 breast
[6] = tested on: CAKI-1 renal
[7] = tested on: CCRF-CEM leukemia
[8] = tested on: COLO 205 colon
[9] = tested on: DU-145 prostate
[10] = tested on: EKVX NSCLC
[11] = tested on: HCC-2998 colon
[12] = tested on: HCT-116 colon
[13] = tested on: HCT-15 colon
[14] = tested on: HL-60(TB) leukemia
[15] = tested on: HOP-62 NSCLC
[16] = tested on: HOP-92 NSCLC
[17] = tested on: HS 578T breast
[18] = tested on: HT29 colon
[19] = tested on: IGROV1 ovarian
[20] = tested on: K-562 leukemia
[21] = tested on: KM12 colon
[22] = tested on: LOX IMVI melanoma
[23] = tested on: M14 melanoma
[24] = tested on: MALME-3M melanoma
[25] = tested on: MCF7 breast
[26] = tested on: MDA-MB-231 breast
[27] = tested on: MDA-MB-435
[28] = tested on: MDA-MB-468 breast
[29] = tested on: MOLT-4 leukemia
[30] = tested on: NCI-H226 lung
[31] = tested on: NCI-H23 lung
[32] = tested on: NCI-H460 lung
[33] = tested on: NCI-H522 lung
[34] = tested on: NCI/ADR-RES ovarian
[35] = tested on: OVCAR-3 ovarian
[36] = tested on: OVCAR-4 ovarian
[37] = tested on: OVCAR-5 ovarian
[38] = tested on: OVCAR-8 ovarian
[39] = tested on: PC-3 prostate
[40] = tested on: RPMI-8226 leukemia
[41] = tested on: RXF 393 renal
[42] = tested on: SF-268 CNS
[43] = tested on: SF-295 CNS
[44] = tested on: SF-539 CNS
[45] = tested on: SK-MEL-2 melanoma
[46] = tested on: SK-MEL-28 melanoma
[47] = tested on: SK-MEL-5 melanoma
[48] = tested on: SK-OV-3 ovarian
[49] = tested on: SN12C renal
[50] = tested on: SNB-19 CNS
[51] = tested on: SNB-75 CNS
[52] = tested on: SR leukemia
[53] = tested on: SW-620 colon
[54] = tested on: T-47D breast
[55] = tested on: TK-10 renal
[56] = tested on: U251 CNS
[57] = tested on: UACC-257 melanoma
[58] = tested on: UACC-62 melanoma
[59] = tested on: UO-31 renal

Question: `Cc1ccc(-c2nc(C#N)c(S(=O)(=O)N3CCN(S(=O)(=O)c4ccccc4)CC3)o2)cc1` was tested. Which GI50 [1] did it give?
Answer: > 100 µM

Question: And the TGI [1]?
Answer: > 100 µM

Question: And the GI50 [2]?
Answer: > 100 µM

Question: And the TGI [2]?
Answer: > 100 µM

Question: What about the GI50 [3] of the same compound?
Answer: > 100 µM

Question: What about the TGI [3] of the same compound?
Answer: > 100 µM

Question: What about the GI50 [4] of the same compound?
Answer: > 100 µM

Question: What about the TGI [4] of the same compound?
Answer: > 100 µM

Question: And the GI50 [5]?
Answer: > 100 µM

Question: What about the TGI [5] of the same compound?
Answer: > 100 µM

Question: And the GI50 [6]?
Answer: > 100 µM

Question: What about the TGI [6] of the same compound?
Answer: > 100 µM

Question: What about the GI50 [7] of the same compound?
Answer: > 100 µM

Question: What about the TGI [7] of the same compound?
Answer: > 100 µM

Question: What about the GI50 [8] of the same compound?
Answer: > 100 µM

Question: What about the TGI [8] of the same compound?
Answer: > 100 µM

Question: What about the GI50 [9] of the same compound?
Answer: > 100 µM

Question: And the TGI [9]?
Answer: > 100 µM

Question: And the GI50 [10]?
Answer: > 100 µM

Question: And the TGI [10]?
Answer: > 100 µM

Question: What about the GI50 [11] of the same compound?
Answer: > 100 µM

Question: What about the TGI [11] of the same compound?
Answer: > 100 µM

Question: What about the GI50 [12] of the same compound?
Answer: > 100 µM

Question: And the TGI [12]?
Answer: > 100 µM

Question: And the GI50 [13]?
Answer: > 100 µM

Question: What about the TGI [13] of the same compound?
Answer: > 100 µM

Question: What about the GI50 [14] of the same compound?
Answer: > 100 µM

Question: And the TGI [14]?
Answer: > 100 µM

Question: What about the GI50 [15] of the same compound?
Answer: > 100 µM

Question: What about the TGI [15] of the same compound?
Answer: > 100 µM

Question: What about the GI50 [16] of the same compound?
Answer: > 100 µM

Question: And the TGI [16]?
Answer: > 100 µM

Question: What about the GI50 [17] of the same compound?
Answer: > 100 µM

Question: And the TGI [17]?
Answer: > 100 µM

Question: And the GI50 [18]?
Answer: > 100 µM

Question: And the TGI [18]?
Answer: > 100 µM

Question: What about the GI50 [19] of the same compound?
Answer: > 100 µM

Question: And the TGI [19]?
Answer: > 100 µM

Question: What about the GI50 [20] of the same compound?
Answer: > 100 µM

Question: What about the TGI [20] of the same compound?
Answer: > 100 µM

Question: What about the GI50 [21] of the same compound?
Answer: > 100 µM

Question: What about the TGI [21] of the same compound?
Answer: > 100 µM

Question: And the GI50 [22]?
Answer: > 100 µM

Question: And the TGI [22]?
Answer: > 100 µM

Question: And the GI50 [23]?
Answer: > 100 µM

Question: And the TGI [23]?
Answer: > 100 µM

Question: And the GI50 [24]?
Answer: > 100 µM

Question: What about the TGI [24] of the same compound?
Answer: > 100 µM

Question: What about the GI50 [25] of the same compound?
Answer: > 100 µM

Question: What about the TGI [25] of the same compound?
Answer: > 100 µM

Question: And the GI50 [26]?
Answer: > 100 µM

Question: And the TGI [26]?
Answer: > 100 µM

Question: And the GI50 [27]?
Answer: > 100 µM

Question: What about the TGI [27] of the same compound?
Answer: > 100 µM

Question: What about the GI50 [28] of the same compound?
Answer: > 100 µM

Question: What about the TGI [28] of the same compound?
Answer: > 100 µM

Question: And the GI50 [29]?
Answer: > 100 µM

Question: What about the TGI [29] of the same compound?
Answer: > 100 µM

Question: And the GI50 [30]?
Answer: > 100 µM

Question: What about the TGI [30] of the same compound?
Answer: > 100 µM

Question: And the GI50 [31]?
Answer: > 100 µM

Question: What about the TGI [31] of the same compound?
Answer: > 100 µM

Question: And the GI50 [32]?
Answer: > 100 µM

Question: What about the TGI [32] of the same compound?
Answer: > 100 µM

Question: And the GI50 [33]?
Answer: > 100 µM

Question: What about the TGI [33] of the same compound?
Answer: > 100 µM

Question: What about the GI50 [34] of the same compound?
Answer: > 100 µM

Question: And the TGI [34]?
Answer: > 100 µM

Question: And the GI50 [35]?
Answer: > 100 µM

Question: What about the TGI [35] of the same compound?
Answer: > 100 µM

Question: And the GI50 [36]?
Answer: > 100 µM

Question: And the TGI [36]?
Answer: > 100 µM

Question: What about the GI50 [37] of the same compound?
Answer: > 100 µM

Question: What about the TGI [37] of the same compound?
Answer: > 100 µM

Question: And the GI50 [38]?
Answer: > 100 µM

Question: And the TGI [38]?
Answer: > 100 µM

Question: What about the GI50 [39] of the same compound?
Answer: > 100 µM

Question: What about the TGI [39] of the same compound?
Answer: > 100 µM

Question: And the GI50 [40]?
Answer: > 100 µM

Question: And the TGI [40]?
Answer: > 100 µM

Question: And the GI50 [41]?
Answer: > 100 µM

Question: What about the TGI [41] of the same compound?
Answer: > 100 µM

Question: And the GI50 [42]?
Answer: > 100 µM

Question: What about the TGI [42] of the same compound?
Answer: > 100 µM

Question: And the GI50 [43]?
Answer: > 100 µM

Question: What about the TGI [43] of the same compound?
Answer: > 100 µM

Question: What about the GI50 [44] of the same compound?
Answer: > 100 µM

Question: What about the TGI [44] of the same compound?
Answer: > 100 µM

Question: And the GI50 [45]?
Answer: > 100 µM

Question: And the TGI [45]?
Answer: > 100 µM

Question: What about the GI50 [46] of the same compound?
Answer: > 100 µM

Question: And the TGI [46]?
Answer: > 100 µM

Question: And the GI50 [47]?
Answer: > 100 µM

Question: What about the TGI [47] of the same compound?
Answer: > 100 µM

Question: What about the GI50 [48] of the same compound?
Answer: > 100 µM

Question: And the TGI [48]?
Answer: > 100 µM

Question: What about the GI50 [49] of the same compound?
Answer: > 100 µM

Question: And the TGI [49]?
Answer: > 100 µM

Question: And the GI50 [50]?
Answer: > 100 µM

Question: And the TGI [50]?
Answer: > 100 µM

Question: And the GI50 [51]?
Answer: > 100 µM

Question: And the TGI [51]?
Answer: > 100 µM

Question: What about the GI50 [52] of the same compound?
Answer: > 100 µM

Question: What about the TGI [52] of the same compound?
Answer: > 100 µM

Question: And the GI50 [53]?
Answer: > 100 µM

Question: What about the TGI [53] of the same compound?
Answer: > 100 µM

Question: What about the GI50 [54] of the same compound?
Answer: > 100 µM

Question: And the TGI [54]?
Answer: > 100 µM

Question: And the GI50 [55]?
Answer: > 100 µM

Question: And the TGI [55]?
Answer: > 100 µM

Question: And the GI50 [56]?
Answer: > 100 µM

Question: What about the TGI [56] of the same compound?
Answer: > 100 µM

Question: And the GI50 [57]?
Answer: > 100 µM

Question: And the TGI [57]?
Answer: > 100 µM

Question: And the GI50 [58]?
Answer: > 100 µM

Question: And the TGI [58]?
Answer: > 100 µM

Question: And the GI50 [59]?
Answer: > 100 µM

Question: What about the TGI [59] of the same compound?
Answer: > 100 µM
